Source: paper PMC12210654, “Palazestrant, a novel oral Complete Estrogen Receptor Antagonist (CERAN) and Selective Estrogen Receptor Degrader (SERD), in patients with ER+/HER2− advanced or metastatic breast cancer: phase 1/2 study results” (Breast Cancer Research : BCR, 2025)
“Also recorded” adds a separate entry of the source.

Key:
[1] = test system: ER; set-up: method as in ref 22 = [22]; 22. Hamilton E, Meisel J, Alemany C, Borges V, Lin NU, Wesolowski R, et al. Preliminary phase 1/2 results from OP-1250-001, a study of OP-1250, an oral CERAN/SERD, in patients with advanced and/or met; conditions: based on estradiol-supplemented preclinical models; cited from earlier work
[2] = Plasma pharmacokinetics, single and multiple dose, noncompartmental; assay type: in vivo, human; conditions: for AUC(0-t): steady-state geometric mean AUC0–24
Protocol: All DLT analyses (phase 1a) were performed in patients enrolled in the study during cycle 1 and who either received 75% of the planned palazestrant doses or experienced a DLT during cycle 1. All PK analyses were performed in patients who received at least 1 dose of palazestrant and had adequate postbaseline PK samples for characterization of PK parameters. All safety analyses were performed and PFS assessed in patients who received at least 1 dose of palazestrant. Clinical response (CR or PR) was assessed in patients who received at least 1 cycle of palazestrant, had measurable disease at baseline, and had at least 1 postbaseline tumor assessment. CBR was assessed in patients who received at least 1 cycle of palazestrant, had at least 1 postbaseline tumor assessment, and started their first dose at least 24 weeks before data cutoff. Patients who discontinued study treatment without radiographic progression within 24 weeks from the first dose were not included in the CBR analysis. PK parameters were estimated using conventional noncompartmental methods. For CBR, estimates were accompanied by 2-sided 95% confidence intervals (95% CIs). For PFS, Kaplan–Meier analyses were used to determine medians, event-free rates, and 95% CIs. For all other outcomes, categorical data were analyzed using frequencies and percentages, and continuous data were analyzed using means (standard deviation) or medians (range), as appropriate.
Fig. 3 Steady-State Plasma Concentration–Time Profiles for Palazestrant (30 to 300 mg QD; Phase 1a/1b/2 data). Palazestrant was administered once daily at the indicated dose. Plasma samples were collected on cycle 2, day 1, at the indicated timepoints following administration to determine plasma drug concentration. Data presented are arithmetic mean and standard deviation; the heavy dashed black line represents the target (efficacious) exposure based on estradiol-supplemented preclinical models (Cmin: 226 ng/mL). Cmin, minimum plasma concentration; QD, once daily

[3] = test system: ESR1; assay: ESR1 mutations in cell-free DNA (SafeSEQ Breast Cancer Panel); assay type: in vivo, human
Protocol: (§1) All immunohistochemistry analyses from tumor samples were performed at ICON Central Laboratories (Farmingdale, NY, USA) using the Ventana® BenchMark ULTRA™ automated staining instrument (Oro Valley, AZ, USA). Positive- and negative-control tissue and negative reagent controls were run for each marker, as well as low-ER controls for each run. Estrogen receptor levels were estimated as the number of positive tumor nuclei divided by the total number of tumor nuclei, expressed as a percentage for each receptor type. Evaluation of Ki67 was performed in accordance with Ki67 Working Group recommendations: 1) only nuclear staining was assessed as positive; 2) in cases of tumor heterogeneity (hot spots), 2 counts were performed and the average was reported; and 3) lymphocyte-rich areas were avoided when possible. Presence of activating ESR1 mutations (amino acid regions 370–381, 460–473, and 529–538) and their mutant allele fractions (MAFs) were determined in cell-free DNA (cfDNA), collected at baseline and at 8 weeks on treatment using the SafeSEQ Breast Cancer Panel (Sysmex Inostics, Baltimore, MD, USA).
In patients who underwent biomarker testing, samples collected on cycle 3 day 1 of treatment across all dose levels were compared to baseline samples to assess changes during treatment. […] Additionally, the number of endocrine resistance-associated ESR1-variant mutations (Y537S, Y537 N/C, L536H/P/R, and D538G) were reduced from 106 mutations detected at baseline (in 64 patients with detectable mutations at baseline) to 37 mutations (in 21 patients) after 2 treatment cycles of palazestrant treatment (Supplemental Fig. 2 C).
14 Supplemental Figure 2. Biomarker analyses following treatment with palazestrant.
15 Quantitative analyses were performed on patient tissue and blood samples collected at baseline and
16 cycle 3 day 1 of palazestrant treatment.
17 decreased after treatment with palazestrant compared (P=.041). B) ER Allred scores were decreased
18 after treatment with palazestrant (P=.13). C) Sankey diagram showing the number of mutations detected
19 in cfDNA for each ESR1 variant before and after treatment with palazestrant. N = number of patients in
20 the analysis; n= number of mutations.
21 49 (77%) had at least one mutation become “Not detected” at C3D1.
22 ESR1 mutation detected at C1D1, 43 (67%) had all their detected mutation(s) become “Not detected” at […]

[4] = Dose escalation (phase 1a): dose-limiting toxicity, MTD, RP2D; assay type: in vivo; conditions: once-daily oral doses of 30 to 300 mg/day
Protocol: Phase 1 of the study comprised a dose-escalation phase (1a) to identify the MTD using a rolling 6 patient dose-escalation design with 7 dose levels. Two doses of palazestrant (60 mg/day and 120 mg/day) were selected for the dose-expansion phase (1b) to further characterize the safety, PK, and preliminary antitumor activity of treatment and to establish the RP2D. Phase 2 further explored the safety and antitumor activity of palazestrant at the RP2D (120 mg/day) in patients with measurable disease (primary cohort), nonmeasurable evaluable disease (exploratory cohort), and central nervous system (CNS) metastases (exploratory cohort). […]
All DLT analyses (phase 1a) were performed in patients enrolled in the study during cycle 1 and who either received 75% of the planned palazestrant doses or experienced a DLT during cycle 1. […] All safety analyses were performed and PFS assessed in patients who received at least 1 dose of palazestrant. Clinical response (CR or PR) was assessed in patients who received at least 1 cycle of palazestrant, had measurable disease at baseline, and had at least 1 postbaseline tumor assessment. CBR was assessed in patients who received at least 1 cycle of palazestrant, had at least 1 postbaseline tumor assessment, and started their first dose at least 24 weeks before data cutoff. […]

[5] = test system: ESR1 wild-type and mutated human breast cancers; conditions: cited from earlier work
[6] = test system: Ki67; assay: Ki67 immunohistochemistry of tumor samples; assay type: in vivo, human; conditions: cycle 3 day 1 (N = 12), all dose levels; baseline 29.2% (N = 18); P = 0.041
Protocol: as §1
In patients who underwent biomarker testing, samples collected on cycle 3 day 1 of treatment across all dose levels were compared to baseline samples to assess changes during treatment. […]

[7] = of 64 patients with an ESR1 mutation detected at C1D1

For `CCCN1CC(Oc2ccc([C@@H]3c4[nH]c5ccccc5c4C[C@@H](C)N3CC(C)(C)F)cc2)C1` [palazestrant, Palazestrant], the “predicted efficacy threshold, target (efficacious) exposure, Cmin” value [1] is listed as 226 ng/mL, the “steady-state plasma concentrations versus predicted efficacy threshold (226 ng/mL)” value ([2]; doses of ≥ 60 mg/day (60 and 120 mg/day)) is listed as “reached the predicted efficacy threshold; also recorded: above the predicted efficacy threshold” and the AUC(0-t) ([2]; human, in vivo, 60 mg) is listed as 4030 ng·h/mL. The AUC(0-t) ([2]; human, in vivo, 120 mg) was 9210 ng·h/mL, the half-life ([2]; human, in vivo, 120 mg, terminal half-life) was 192 h and the bioavailability ([2]; human, in vivo, po) was “readily bioavailable”. For the same molecule, the distribution ([2]; in vivo) was “extensive tissue distribution”, the “dose proportionality of exposure” value ([2]; in vivo) was “dose-proportional exposure” and the elimination ([2]; in vivo) was “biphasic elimination”. The “patients with detectable ESR1-variant mutations on treatment” value ([3]; after 2 treatment cycles, 64 patients at baseline) was 21 patients, the “number of endocrine resistance-associated ESR1-variant mutations detected on treatment” value ([3]; after 2 treatment cycles, 106 mutations at baseline) was 37 mutations and the “patients with all detected ESR1 mutation(s) become Not detected at C3D1” value [3, 7] was 67%. The “patients with at least one ESR1 mutation become Not detected at C3D1” value [3, 7] was 77%, the “maximum tolerated dose (MTD)” value [4] was “not reached; also recorded: no MTD was identified” and the “tumor shrinkage compared with fulvestrant and tamoxifen” value ([5]; preclinical xenograft models, ESR1 wild-type and mutated) was “greater tumor shrinkage”. The “preclinical antitumor activity relative to fulvestrant and elacestrant” value ([5]; regardless of ESR1 mutation status) was “superior” and the “Ki67 levels on treatment” value [6] was 20.4%.
